Data as given in PMC10862539, “Chelation of Mitochondrial Iron as an Antiparasitic Strategy” (ACS Infectious Diseases, 2024).
Values joined by “and” are separate entries in the source; they are usually repeats but may differ in a detail not shown here. Equal values may be shown once.

Legend:
[1] = molecular target: isolated mitochondria of T. brucei 427; assay: Mitochondrial membrane intactness in isolated mitochondria (threonine dehydrogenase marker); parameters: species or system Trypanosoma brucei; settings: threonine dehydrogenase activity as marker, read-out: 50% membrane intactness (inner membrane permeability increased by 50%)
Method: Mitochondrial intactness was assessed by isolating the mitochondrial fraction of untreated cells, as described above, without the addition of Triton X-100 and adding different concentrations of mitoDFO. Threonine dehydrogenase activity was measured as a marker of the disintegration of mitochondrial membranes. Triton X-100 was used to disrupt membrane integrity and served as a positive control to obtain maximum activity. All experiments were performed in at least three biologically independent replicates and plotted and analyzed using Prism 8.0 (GraphPad Software).

[2] = system: Cryptococcus neoformans; assay: C. neoformans capsule size (India ink microscopy); type: cell-based; settings: 20 μM mitoDFO for 24 h; 31 cells
Method: C. neoformans capsule thickness was measured using a previously published protocol.[33] Briefly, the yeast was seeded in 1 mL of RPMI in a 24 well plate with and without a final concentration of 20 μM mitoDFO for 24 h at 35 °C. The culture was harvested (1300 g, 5 min, RT) and resuspended in 50 μL of RPMI. An equal amount of India Ink (Thermo-Fisher) was added, and a total volume of 15 μL of resuspended cells was placed on a microscope slide, covered with cover glass, and imaged on an Eclipse TI-S (Nikon) inverted microscope using 100× magnification. A total of 31 cells were randomly selected, excluding morphologically anomalous and overlapping cells. Using NIS Elements BR (Nikon), the inner and outer diameters of each cell were measured, and cell size and capsule thickness were calculated. Graphs were plotted, and an unpaired t-test was performed using Prism 8.0 (GraphPad Software).

[3] = system: T. brucei 427 bloodstream form; assay: Mitochondrial membrane potential (TMRE, flow cytometry); type: cell-based, Trypanosoma brucei; parameters: dose or concentration left out as unconfirmed; settings: 0.12, 0.3, and mitoDFO for 24 h
Method: T. brucei 427 bloodstream form’s mitochondrial membrane potential was assessed using the fluorescent probe TMRE (Thermo Fisher Scientific). […] Approximately 1 × 10^6 cells were incubated with 60 nM TMRE for 30 min and washed with PBS with 6 mM glucose, and 10 000 events were measured on a Guava EasyCyte 8HT flow cytometer (Luminex) using a 488 excitation laser and a 583/26 detector. Median fluorescence was plotted against untreated culture using Prism 8.0 (GraphPad Software), and statistical significance was determined using RM one-way ANOVA with Geisser-Greenhouse correction. The experiment was performed in three biologically independent replicates.

[4] = system: T. brucei 427 bloodstream form; assay: Reactive oxygen species determination (H2DCFDA, flow cytometry); type: cell-based, Trypanosoma brucei; settings: twice the EC50 value (0.12 μM), 24 h
Method: T. brucei 427 bloodstream form’s cellular ROS production was assessed using H2DCFDA (Sigma-Aldrich). Cells were preincubated for 24 h with 0.12 μM mitoDFO, and approximately 1 × 10^6 cells were incubated with 10 μM H2DCFDA for 30 min and washed with PBS with 6 mM glucose, and 10 000 events were measured on a Guava EasyCyte 8HT flow cytometer (Luminex) using a 488 excitation laser and a 525/30 detector. Median fluorescence was plotted against untreated culture using Prism 8.0 (GraphPad Software), and statistical significance was determined using a two-tailed paired t-test. The experiment was performed in three biologically independent replicates.

[5] = system: Human fibroblast BJ1; parameters: method as in C. Sandoval-Acuña et al.[25]; settings: ref C. Sandoval-Acuña et al.[25], read-out: control EC50; cited from earlier work

SMILES: CC(=O)N(O)CCCCCNC(=O)CCC(=O)N(O)CCCCCNC(=O)CCC(=O)N(O)CCCCCN(CCCCCCCCCC[P+](c1ccccc1)(c1ccccc1)c1ccccc1)CCCCCCCCCC[P+](c1ccccc1)(c1ccccc1)c1ccccc1 [mitoDFO]
- EC50 [1]: 63.2 µM and 63 µM
- capsule thickness [2]: increases significantly
- overall cell size [2]: remains the same
- mitochondrial membrane potential [3]: rapidly reduced in a dose-dependent manner
- increase in the presence of ROS compared to the culture without treatment [4]: approximately 3.5 fold
- EC50 [5]: 7.9 ± 3.9 µM
